Reference: US8530461B2 (Boehringer Ingelheim International GmbH, priority 2011, dated 2013)

molecular target: T1, human ACC2 (Homo sapiens, UniProt O00763); assay: ACC2 assay, spectrophotometric 384 well assay (NADH-linked, coupled lactate dehydrogenase/pyruvate kinase); assay type: biochemical; conditions: ACC2 assay; human ACC2 construct lacking 128 N-terminal amino acids; 25° C., 340 nm, 15 minutes; read-out: IC50
T1 construct: made in house; host or cells: insect cells (baculoviral expression system)
T1 sequence (O00763 129-2458 limits assumed): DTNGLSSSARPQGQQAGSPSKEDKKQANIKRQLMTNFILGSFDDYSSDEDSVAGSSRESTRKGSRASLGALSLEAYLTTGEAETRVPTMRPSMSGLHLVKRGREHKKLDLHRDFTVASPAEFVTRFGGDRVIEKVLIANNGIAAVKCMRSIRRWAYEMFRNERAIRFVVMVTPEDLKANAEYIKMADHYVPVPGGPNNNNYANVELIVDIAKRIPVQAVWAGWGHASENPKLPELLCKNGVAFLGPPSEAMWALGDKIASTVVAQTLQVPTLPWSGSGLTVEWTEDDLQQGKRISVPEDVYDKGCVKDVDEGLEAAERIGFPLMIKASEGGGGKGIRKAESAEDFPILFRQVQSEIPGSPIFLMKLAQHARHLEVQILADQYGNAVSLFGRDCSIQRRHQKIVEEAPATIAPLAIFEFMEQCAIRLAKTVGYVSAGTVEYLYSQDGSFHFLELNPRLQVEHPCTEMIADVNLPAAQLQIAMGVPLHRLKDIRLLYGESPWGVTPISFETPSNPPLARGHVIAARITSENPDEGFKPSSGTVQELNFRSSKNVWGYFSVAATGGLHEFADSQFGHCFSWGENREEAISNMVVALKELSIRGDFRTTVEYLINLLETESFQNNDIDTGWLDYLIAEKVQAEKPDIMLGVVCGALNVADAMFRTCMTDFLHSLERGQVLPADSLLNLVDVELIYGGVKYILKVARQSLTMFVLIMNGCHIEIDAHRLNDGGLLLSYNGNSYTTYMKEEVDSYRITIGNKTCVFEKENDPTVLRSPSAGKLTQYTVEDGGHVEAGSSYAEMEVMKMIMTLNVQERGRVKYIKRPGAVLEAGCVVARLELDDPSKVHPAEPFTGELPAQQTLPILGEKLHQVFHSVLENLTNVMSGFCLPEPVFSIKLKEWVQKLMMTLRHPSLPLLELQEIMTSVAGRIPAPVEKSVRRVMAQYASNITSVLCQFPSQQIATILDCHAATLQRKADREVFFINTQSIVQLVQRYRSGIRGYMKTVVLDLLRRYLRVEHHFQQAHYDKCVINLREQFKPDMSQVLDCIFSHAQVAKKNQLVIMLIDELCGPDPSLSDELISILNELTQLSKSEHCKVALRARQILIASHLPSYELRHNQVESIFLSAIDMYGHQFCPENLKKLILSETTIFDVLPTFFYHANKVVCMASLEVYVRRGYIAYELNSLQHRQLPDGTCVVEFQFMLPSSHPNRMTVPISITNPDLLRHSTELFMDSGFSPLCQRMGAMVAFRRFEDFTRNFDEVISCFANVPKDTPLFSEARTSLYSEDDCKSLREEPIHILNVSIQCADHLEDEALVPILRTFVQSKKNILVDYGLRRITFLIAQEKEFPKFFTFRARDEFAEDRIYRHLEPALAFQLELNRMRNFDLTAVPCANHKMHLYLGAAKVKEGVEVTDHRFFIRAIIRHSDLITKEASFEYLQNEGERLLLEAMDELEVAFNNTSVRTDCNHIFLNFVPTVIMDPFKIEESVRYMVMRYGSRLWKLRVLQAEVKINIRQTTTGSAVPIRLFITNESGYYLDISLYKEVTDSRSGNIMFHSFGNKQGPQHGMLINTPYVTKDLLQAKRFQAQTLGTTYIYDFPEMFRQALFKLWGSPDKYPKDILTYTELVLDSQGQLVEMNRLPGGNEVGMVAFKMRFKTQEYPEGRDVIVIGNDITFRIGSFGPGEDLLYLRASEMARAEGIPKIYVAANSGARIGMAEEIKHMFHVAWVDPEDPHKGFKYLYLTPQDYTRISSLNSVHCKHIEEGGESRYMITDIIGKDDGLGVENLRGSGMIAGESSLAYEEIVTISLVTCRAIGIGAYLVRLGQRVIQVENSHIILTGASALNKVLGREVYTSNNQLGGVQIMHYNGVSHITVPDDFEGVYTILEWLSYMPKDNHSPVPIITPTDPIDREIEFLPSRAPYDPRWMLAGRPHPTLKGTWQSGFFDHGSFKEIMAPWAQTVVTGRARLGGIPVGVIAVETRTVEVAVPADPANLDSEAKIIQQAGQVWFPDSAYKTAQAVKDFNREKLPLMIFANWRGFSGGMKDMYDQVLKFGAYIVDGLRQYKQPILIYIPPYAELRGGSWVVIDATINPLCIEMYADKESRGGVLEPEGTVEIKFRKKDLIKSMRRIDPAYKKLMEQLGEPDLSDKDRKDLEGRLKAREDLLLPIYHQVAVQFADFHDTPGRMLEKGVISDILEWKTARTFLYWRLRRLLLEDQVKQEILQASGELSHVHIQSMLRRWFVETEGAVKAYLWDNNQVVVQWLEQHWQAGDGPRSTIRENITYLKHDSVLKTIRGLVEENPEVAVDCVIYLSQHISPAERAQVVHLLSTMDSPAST
Method: Spectrophotometric 384 Well Assay
Malonyl CoA formation by acetyl CoA carboxylases is stoichometrically linked to the consumption of ATP. ACC2 activity is measured in a NADH-linked kinetic method measuring ADP generated during the ACC reaction using a coupled lactate dehydrogenase/pyruvate kinase reaction.
For biological testing, a human ACC2 construct which lacks the 128 amino acids at the N-terminus for increased solubility (nt 385-6966 in Genbank entry AJ575592) is cloned. The protein is then expressed in insect cells using a baculoviral expression system. Protein purification is performed by anion exchange.
All compounds are dissolved in dimethyl sulfoxide (DMSO) to a concentration of 10 mM.
Assay reactions are then carried out in 384-well plates, with hACC2 in an appropriate dilution and at final assay concentrations (f.c.) of 100 mM Tris (pH 7.5), 10 mM trisodium citrate, 25 mM KHCO3, 10 mM MgCl2, 0.5 mg/ml BSA, 3.75 mM reduced L-glutathione, 15 U/ml lactate dehydrogenase, 0.5 mM phosphoenolpyruvate, 15 U/ml pyruvate kinase, compounds at different concentrations at final DMSO concentrations of 1%.
The enzymatic reaction is then started by addition of a mixture of NADH, acetyl Coenzyme A (both […].) and ATP (500 uM f.c.). The decrease of the optical density (slope S) is then determined at 25° C. at a wavelength of 340 nm over 15 minutes in a spectrophotometric reader.
Each assay microtiter plate contains wells with vehicle instead of compound as controls for the non-inhibited enzyme (100% CTL; ‘HIGH’) and wells without acetyl-CoA as controls for non-specific NADH degradation (0% CTL; ‘LOW’).
The slope S is used for calculation of % CTL=(S(compound)−S(‘LOW’))/(S(‘HIGH’)−S(‘LOW’))100. Compounds will give values between 100% CTL (no inhibition) and 0% CTL (complete inhibition).
For IC50 value determination, the sample slope in the presence of the test compound after subtraction of the low controls (S(compound)−S(‘LOW’)) are used.
An IC50 value is derived from the compound slopes at different dosages after subtraction of the low controls (S(compound)−S(‘LOW’)) by non-linear regression curve fitting (equation y=(A+((B−A)/(1+((C/x)^D))))).

Row | SMILES | IC50
1 | CCOc1ccc(OC2CN(c3ccc([C@H](C)NC(=O)c4cnc(NC(C)=O)s4)cc3)C2)cc1 [Example 1.60] | 320 nM
2 | CCOc1ccc(OC2CN(c3ccc([C@H](C)NC(=O)Cn4cncn4)cc3)C2)cc1 [Example 1.61] | 1440 nM
3 | CCOCC(=O)N[C@@H](C)c1ccc(N2CC(Oc3ccc(OCC)cc3)C2)cc1 [Example 1.62] | 2500 nM
4 | C#CC(C)(C)C(=O)N[C@@H](C)c1ccc(N2CC(Oc3ccc(OCC)cc3)C2)cc1 [Example 1.63] | 930 nM
5 | CCOc1ccc(OC2CN(c3ccc([C@H](C)NC(=O)c4ccc(C)nc4)cc3)C2)cc1 [Example 1.64] | 2190 nM
6 | CCCCC(=O)N[C@@H](C)c1ccc(N2CC(Oc3ccc(OCC)cc3)C2)cc1 [Example 1.65] | 800 nM
7 | CCOc1ccc(OC2CN(c3ccc([C@H](C)NC(=O)c4sc(NC(C)=O)nc4-c4ccccc4)cc3)C2)cc1 [Example 1.66] | 550 nM
8 | CCOc1ccc(OC2CN(c3ccc([C@H](C)NC(=O)CCOC)cc3)C2)cc1 [Example 1.67] | 1290 nM
9 | CCOc1ccc(OC2CN(c3ccc([C@H](C)NC(=O)C(C)(C)C#N)cc3)C2)cc1 [Example 1.68] | 1520 nM
10 | CCOc1ccc(OC2CN(c3ccc([C@H](C)NC(=O)c4ccc(C)c(NC(C)=O)c4)cc3)C2)cc1 [Example 1.69] | 3150 nM
11 | CCOc1ccc(OC2CN(c3ccc([C@H](C)NC(=O)C(C)CC)cc3)C2)cc1 (stereo partly shown) [Example 1.71] | 710 nM
12 | CCOc1ccc(OC2CN(c3ccc([C@H](C)NC(=O)c4coc(NC(C)=O)n4)cc3)C2)cc1 [Example 1.72] | 1190 nM
13 | CCOc1ccc(OC2CN(c3ccc([C@H](C)NC(=O)C(F)F)cc3)C2)cc1 [Example 1.73] | 160 nM
14 | CCOc1ccc(OC2CN(c3ccc([C@H](C)NC(=O)C4(C(F)(F)F)CC4)cc3)C2)cc1 [Example 1.74] | 410 nM
15 | CCOc1ccc(OC2CN(c3ccc([C@H](C)NC(=O)CC(F)(F)F)cc3)C2)cc1 [Example 1.75] | 410 nM
16 | CCOc1ccc(OC2CN(c3ccc([C@H](C)NC(=O)c4sc(C)nc4C)cc3)C2)cc1 [Example 1.76] | 1000 nM
17 | C#CCCC(=O)N[C@@H](C)c1ccc(N2CC(Oc3ccc(OCC)cc3)C2)cc1 [Example 1.77] | 1040 nM
18 | CCOc1ccc(OC2CN(c3ccc([C@H](C)NC(=O)c4cncc(NC(C)=O)c4)cc3)C2)cc1 [Example 1.78] | 360 nM
19 | CCOc1ccc(OC2CN(c3ccc([C@H](C)NC(=O)C(C)O)cc3)C2)cc1 (stereo partly shown) [Example 1.79] | 1720 nM
20 | CCOc1ccc(OC2CN(c3ccc([C@H](C)NC(=O)CCC#N)cc3)C2)cc1 [Example 1.80] | 1060 nM
21 | CCOc1ccc(OC2CN(c3ccc([C@H](C)NC(=O)Cc4ccccn4)cc3)C2)cc1 [Example 1.81] | 2330 nM
22 | CCOc1ccc(OC2CN(c3ccc([C@H](C)NC(=O)C(C)C#N)cc3)C2)cc1 (stereo partly shown) [Example 1.82] | 270 nM
23 | CCOc1ccc(OC2CN(c3ccc([C@H](C)NC(=O)CC#N)cc3)C2)cc1 [Example 1.83] | 590 nM
24 | CCOc1ccc(OC2CN(c3ccc([C@H](C)NC(=O)c4cnon4)cc3)C2)cc1 [Example 1.84] | 730 nM
25 | CCOc1ccc(OC2CN(c3ccc([C@H](C)NC(=O)c4cncs4)cc3)C2)cc1 [Example 1.85] | 230 nM
26 | C[C@H](NC(=O)c1cn[nH]c1)c1ccc(N2CC(Oc3ccc(OCC4CC4)cc3)C2)cc1 [Example 1.86] | 50 nM

Row | SMILES | IC50
27 | C[C@H](NC(=O)CC#N)c1ccc(N2CC(Oc3ccc(OCC4CC4)cc3)C2)cc1 [Example 1.87] | 200 nM
28 | CCC(=O)N[C@@H](C)c1ccc(N2CC(Oc3ccc(OCC4CC4)cc3)C2)cc1 [Example 1.88] | 100 nM
29 | C[C@H](NC(=O)C1(C)CC1)c1ccc(N2CC(Oc3ccc(OCC4CC4)cc3)C2)cc1 [Example 1.89] | 120 nM
30 | C[C@H](NC(=O)c1cncs1)c1ccc(N2CC(Oc3ccc(OCC4CC4)cc3)C2)cc1 [Example 1.90] | 90 nM
31 | CCOc1ccc(OC2CN(c3ccc([C@H](C)NC(=O)c4cc(C)oc4C)cc3)C2)cc1 [Example 2.1, (S)-2,5-Dimethyl-furan-3-carboxylic acid (1-{4-[3-(4-ethoxy-phenoxy)-azetidin-1-yl]-phenyl}-ethyl)-amide] | 1530 nM
32 | CCOc1ccc(OC2CN(c3ccc([C@H](C)NC(=O)c4ccnn4C)cc3)C2)cc1 [Example 2.2] | 790 nM
33 | CCOc1ccc(OC2CN(c3ccc([C@H](C)NC(=O)c4ccoc4C)cc3)C2)cc1 [Example 2.3] | 820 nM
34 | CCOc1ccc(OC2CN(c3ccc([C@H](C)NC(=O)c4ccno4)cc3)C2)cc1 [Example 2.4] | 290 nM
35 | C[C@H](NC(=O)C1CC1)c1ccc(N2CC(Oc3ccc(OCC4CC4)cc3)C2)cc1 [Example 2.7] | 70 nM
36 | CCOc1ccc(OC2CN(c3ccc([C@H](C)NC(=O)C(F)(F)F)cc3)C2)cc1 [Example 3.1, (S)—N-(1-{4-[3-(4-Ethoxy-phenoxy)-azetidin-1-yl]-phenyl}-ethyl)-2,2,2-trifluoro-acetamide] | 60 nM
37 | CCOc1ccc(OC2CN(c3ccc([C@H](C)NC(=O)Nc4ccncn4)cc3)C2)cc1 [Example 4.1, (S)-1-(1-{4-[3-(4-Ethoxy-phenoxy)-azetidin-1-yl]-phenyl}-ethyl)-3-pyrimidin-4-yl-urea] | 3410 nM
38 | CCNC(=O)N[C@@H](C)c1ccc(N2CC(Oc3ccc(OCC)cc3)C2)cc1 [Example 4.2] | 1540 nM
39 | CCOc1ccc(OC2CN(c3ccc([C@H](C)NC(=O)NC)cc3)C2)cc1 [Example 4.3] | 1000 nM
40 | CCOc1ccc(OC2CN(c3ccc([C@H](C)NC(=O)N4CC(O)C4)cc3)C2)cc1 [Example 4.4] | 1610 nM
41 | CCOc1ccc(OC2CN(c3ccc([C@H](C)NC(=O)N(C)CC4CC4)cc3)C2)cc1 [Example 4.5] | 5570 nM
42 | CCOc1ccc(OC2CN(c3ccc([C@H](C)NC(=O)Nc4cc[nH]n4)cc3)C2)cc1 [Example 4.7] | 2310 nM
43 | CCOc1ccc(OC2CN(c3ccc([C@H](C)NC(=O)N(C)CCOC)cc3)C2)cc1 [Example 4.8] | 1390 nM
44 | CCOc1ccc(OC2CN(c3ccc([C@H](C)NC(=O)N(C)CC)cc3)C2)cc1 [Example 4.9] | 860 nM
45 | CCOc1ccc(OC2CN(c3ccc([C@H](C)NC(=O)N(C)C(C)C)cc3)C2)cc1 [Example 4.10] | 3100 nM
46 | CCOc1ccc(OC2CN(c3ccc([C@H](C)NC(=O)N4CCC4)cc3)C2)cc1 [Example 4.11] | 2370 nM
47 | CCOc1ccc(OC2CN(c3ccc([C@H](C)NC(=O)N(CC#N)C4CC4)cc3)C2)cc1 [Example 4.12] | 1610 nM
48 | CCOc1ccc(OC2CN(c3ccc([C@H](C)NC(=O)N(C)c4cccnc4)cc3)C2)cc1 [Example 4.13] | 370 nM
49 | CCOc1ccc(OC2CN(c3ccc([C@H](C)NC(=O)N(C)C4CC4)cc3)C2)cc1 [Example 4.14] | 3450 nM
50 | C[C@H](NC(=O)N(C)C)c1ccc(N2CC(Oc3ccc(OCC4CC4)cc3)C2)cc1 [Example 4.15] | 70 nM
51 | CCNC(=O)N[C@@H](C)c1ccc(N2CC(Oc3ccc(OCC4CC4)cc3)C2)cc1 [Example 4.16] | 280 nM
52 | C[C@H](NC(=O)N(C)C1CC1)c1ccc(N2CC(Oc3ccc(OCC4CC4)cc3)C2)cc1 [Example 4.17] | 1130 nM
